Measurements published in patent publication US9695155B2, “Herbicidal substituted pyrimidinyloxy benzene compounds” (E. I. DU PONT DE NEMOURS AND COMPANY, priority 2013, dated 2017).

Columns and labels:
[1] = system: wild buckwheat; assay: Test D preemergence; type: in vivo, Polygonum convolvulus; settings: Fallopia convolvulus, pre-emergence
Outline: (§1)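 Seeds sown in silt loam soil got preemergence sprays; plants in peat/vermiculite potting medium were sprayed postemergence at 2–18 cm (1- to 4-leaf stage). Chemicals were formulated in a non-phytotoxic solvent mixture with surfactant. After 7 to 21 days in a controlled environment, injury was rated visually versus controls, 0 (no effect) to 100 (complete control).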

[2] = system: bluegrass; assay: Test D postemergence; type: in vivo, Poa annua; settings: Poa annua, post-emergence, Postemergence, scale 0 to 100 (0 no effect, 100 complete control), read-out: Plant response rating, Bluegrass
Outline: as §1

[3] = system: canarygrass; assay: Test D postemergence; type: in vivo, Phalaris minor; settings: Phalaris minor, post-emergence
Outline: as §1

[4] = system: bromegrass, downy; assay: Test D postemergence; type: in vivo, Bromus tectorum; settings: Bromus tectorum, post-emergence, Postemergence, scale 0 to 100 (0 no effect, 100 complete control), read-out: Plant response rating, Bromegrass, Downy
Outline: as §1

[5] = system: speedwell; assay: Test D postemergence; type: in vivo, Veronica persica; settings: Veronica persica, post-emergence
Outline: as §1

[6] = system: spring barley; assay: Test D postemergence; type: in vivo, Hordeum vulgare; settings: Hordeum vulgare, post-emergence, Postemergence, scale 0 to 100 (0 no effect, 100 complete control), read-out: Plant response rating, Barley, Spring
Outline: as §1

[7] = system: winter barley; assay: Test D postemergence; type: in vivo, Hordeum vulgare; settings: Hordeum vulgare, post-emergence, Postemergence, scale 0 to 100 (0 no effect, 100 complete control), read-out: Plant response rating, Barley, Winter
Outline: as §1

[8] = system: wild buckwheat; assay: Test D postemergence; type: in vivo, Polygonum convolvulus; settings: Fallopia convolvulus, post-emergence, Postemergence, scale 0 to 100 (0 no effect, 100 complete control), read-out: Plant response rating, Buckwheat, Wild
Outline: as §1

[9] = system: waterhemp_RES2 (ALS & HPPD resistant common waterhemp); assay: Test E postemergence; type: in vivo, Amaranthus rudis; settings: Amaranthus tuberculatus, post-emergence, read-out: Plant response rating, Waterhemp_RES2
Outline: (§2)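 Compound in a non-phytotoxic solvent mixture with surfactant was applied preemergence to seeds in silt loam soil, or postemergence to plants 2 to 18 cm tall grown in peat-based potting medium. Plants were kept in a greenhouse for 14 to 21 days, then rated visually against untreated controls on a 0 (no effect) to 100 (complete control) scale.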

[10] = system: waterhemp; assay: Test E postemergence; type: in vivo, Amaranthus rudis; settings: Amaranthus tuberculatus, post-emergence, read-out: Plant response rating, Waterhemp
Outline: as §2

[11] = system: barnyardgrass; assay: Test E postemergence; type: in vivo, Echinochloa crus-galli; settings: Echinochloa crus-galli, post-emergence, read-out: Plant response rating, Barnyardgrass
Excerpt: (§3) Seeds of plant species selected from corn (Zea mays), soybean (Glycine max), velvetleaf (Abutilon theophrasti), lambsquarters (Chenopodium album), wild poinsettia (Euphorbia heterophylla), palmer pigweed (Amaranthus palmeri), waterhemp (common waterhemp, Amaranthus rudis), surinam grass (Brachiaria decumbens), large (Lg) crabgrass (Digitaria sanguinalis), Brazilian crabgrass (Digitaria horizontalis), fall panicum (Panicum dichotomiflorum), giant foxtail (Setaria faberii), green foxtail (Setaria viridis), goosegrass (Eleusine indica), johnsongrass (Sorghum halepense), ragweed (common ragweed, Ambrosia elatior), barnyardgrass (Echinochloa crus-galli), sandbur (southern sandbur, Cenchrus echinatus), arrowleaf sida (Sida rhombifolia), Italian ryegrass (Lolium multiflorum), dayflower (Virginia (VA) dayflower, Commelina virginica), field bindweed (Convolvulus arvensis), morningglory (Ipomoea coccinea), nightshade (eastern black nightshade, Solanum ptycanthum), kochia (Kochia scoparia), yellow nutsedge (Cyperus esculentus), cocklebur (common cocklebur, Xanthium strumarium), smartweed (ladysthumb smartweed, and hairy beggarticks (Bidens pilosa), were planted into a silt loam soil and treated preemergence with test chemicals formulated in a non-phytotoxic solvent mixture which included a surfactant.
(§4) At the same time, plants from these crop and weed species and also horseweed (Canada horseweed, Conyza canadensis), waterhemp_RES1, (ALS & Triazine resistant common waterhemp, Amaranthus rudis), and waterhemp_RES2, (ALS & HPPD resistant common waterhemp, Amaranthus rudis) were planted in pots containing Redi-Earth® planting medium (Scotts Company, 14111 Scottslawn Road, Marysville, Ohio 43041) comprising spaghnum peat moss, vermiculite, wetting agent and starter nutrients were treated with postemergence applications of test chemicals formulated in the same manner. Plants ranged in height from 2 to 18 cm for postemergence treatments (1- to 4-leaf stage). Treated plants and controls were maintained in a greenhouse for 14 to 21 days, after which time all species were compared to controls and visually evaluated. Plant response ratings, summarized in Table E, are based on a scale of 0 to 100 where 0 is no effect and 100 is complete control. A dash (-) response means no test result.

[12] = system: field bindweed; assay: Test E postemergence; type: in vivo, Convolvulus arvensis; settings: Convolvulus arvensis, post-emergence, read-out: Plant response rating, Field Bindweed
Excerpt: as §3, §4

[13] = Postemergence, 31 g ai/ha, scale 0 to 100
[14] = Postemergence, 62 g ai/ha, scale 0 to 100
[15] = Postemergence, 125 g ai/ha, scale 0 to 100
[16] = postemergence, 16 g ai/ha, scale 0 to 100, 0 no effect, 100 complete control
[17] = postemergence, 8 g ai/ha, scale 0 to 100, 0 no effect, 100 complete control

SMILES: Clc1cnc(Oc2ccccc2-n2cc(Br)cn2)nc1 [Compound 7, 2-[2-(4-bromo-1H-pyrazol-1-yl)phenoxy]-5-chloropyrimidine]
- pest or weed control at 16 g/ha ([1]; 16 g ai/ha, scale 0 (no effect) to 100 (complete control), read-out: Plant response rating, Buckwheat, Wild): 0%
- pest or weed control at 31 g/ha ([1]; 31 g ai/ha, scale 0-100, read-out: Plant response rating, Buckwheat, Wild): 0%
- pest or weed control at 62 g/ha ([1]; 62 g ai/ha, scale 0-100, read-out: Plant response rating, Buckwheat, Wild): 75%
- pest or weed control at 125 g/ha ([1]; 125 g ai/ha, scale 0-100, read-out: Plant response rating, Buckwheat, Wild): 80%
- pest or weed control at 250 g/ha ([1]; 250 g ai/ha, scale 0-100, read-out: Plant response rating, Buckwheat, Wild): 90%
- pest or weed control at 16 g/ha ([2]; 16 g ai/ha): 0%
- pest or weed control at 31 g/ha ([2]; 31 g ai/ha): 0%
- pest or weed control at 62 g/ha ([2]; 62 g ai/ha): 0%
- pest or weed control at 125 g/ha ([2]; 125 g ai/ha): 10%
- pest or weed control at 250 g/ha ([2]; 250 g ai/ha): 15%
- pest or weed control at 16 g/ha ([3]; 16 g ai/ha, scale 0-100, read-out: Plant response rating, Canarygrass): 0%
- pest or weed control at 31 g/ha ([3]; 31 g ai/ha, scale 0 to 100 (0 no effect, 100 complete control), read-out: Plant response rating, Canarygrass): 0%
- pest or weed control at 62 g/ha ([3]; 62 g ai/ha, scale 0 to 100 (0 no effect, 100 complete control), read-out: Plant response rating, Canarygrass): 5%
- pest or weed control at 125 g/ha ([3]; 125 g ai/ha, scale 0 to 100 (0 no effect, 100 complete control), read-out: Plant response rating, Canarygrass): 10%
- pest or weed control at 250 g/ha ([3]; 250 g ai/ha, scale 0 to 100 (0 no effect, 100 complete control), read-out: Plant response rating, Canarygrass): 25%
- pest or weed control at 16 g/ha ([4]; 16 g ai/ha): 0%
- pest or weed control at 31 g/ha ([4]; 31 g ai/ha): 0%
- pest or weed control at 62 g/ha ([4]; 62 g ai/ha): 0%
- pest or weed control at 125 g/ha ([4]; 125 g ai/ha): 5%
- pest or weed control at 250 g/ha ([4]; 250 g ai/ha): 5%
- pest or weed control at 16 g/ha ([5]; 16 g ai/ha, scale 0-100, read-out: Plant response rating, Speedwell): 30%
- pest or weed control at 31 g/ha ([5]; 31 g ai/ha, scale 0 to 100 (0 no effect, 100 complete control), read-out: Plant response rating, Speedwell): 70%
- pest or weed control at 62 g/ha ([5]; 62 g ai/ha, scale 0 to 100 (0 no effect, 100 complete control), read-out: Plant response rating, Speedwell): 100%
- pest or weed control at 125 g/ha ([5]; 125 g ai/ha, scale 0 to 100 (0 no effect, 100 complete control), read-out: Plant response rating, Speedwell): 100%
- pest or weed control at 250 g/ha ([5]; 250 g ai/ha, scale 0 to 100 (0 no effect, 100 complete control), read-out: Plant response rating, Speedwell): 100%
- plant injury at 16 g/ha ([6]; 16 g ai/ha): 0%
- plant injury at 31 g/ha ([6]; 31 g ai/ha): 0%
- plant injury at 62 g/ha ([6]; 62 g ai/ha): 0%
- plant injury at 125 g/ha ([6]; 125 g ai/ha): 5%
- plant injury at 250 g/ha ([6]; 250 g ai/ha): 5%
- plant injury at 16 g/ha ([7]; 16 g ai/ha): 0%
- plant injury at 31 g/ha ([7]; 31 g ai/ha): 0%
- plant injury at 62 g/ha ([7]; 62 g ai/ha): 0%
- plant injury at 125 g/ha ([7]; 125 g ai/ha): 0%
- plant injury at 250 g/ha ([7]; 250 g ai/ha): 0%
- pest or weed control at 16 g/ha ([8]; 16 g ai/ha): 20%
- pest or weed control at 31 g/ha ([8]; 31 g ai/ha): 30%
- pest or weed control at 62 g/ha ([8]; 62 g ai/ha): 60%
- pest or weed control at 125 g/ha ([8]; 125 g ai/ha): 85%
- pest or weed control at 250 g/ha ([8]; 250 g ai/ha): 100%
- pest or weed control at 31 g/ha [9, 13]: 80%
- pest or weed control at 62 g/ha [9, 14]: 90%
- pest or weed control at 125 g/ha [9, 15]: 95%
- pest or weed control at 16 g/ha [9, 16]: 75%
- pest or weed control at 31 g/ha [10, 13]: 90%
- pest or weed control at 62 g/ha [10, 14]: 90%
- pest or weed control at 125 g/ha [10, 15]: 90%
- pest or weed control at 8 g/ha [10, 17]: 70%
- pest or weed control at 16 g/ha [10, 16]: 80%
- pest or weed control at 31 g/ha [11, 13]: 0%
- pest or weed control at 62 g/ha [11, 14]: 10%
- pest or weed control at 125 g/ha [11, 15]: 10%
- pest or weed control at 8 g/ha [11, 17]: 0%
- pest or weed control at 16 g/ha [11, 16]: 0%
- pest or weed control at 31 g/ha [12, 13]: 30%
- pest or weed control at 62 g/ha [12, 14]: 50%
- pest or weed control at 125 g/ha [12, 15]: 70%
- pest or weed control at 8 g/ha [12, 17]: 15%
- pest or weed control at 16 g/ha [12, 16]: 20%
